Patent publication US20080319087A1, “Use of Ambroxol for the Treatment of Rhinovirus Infections” (priority 2005, published 2008)
Where a name gives a salt, the structure may show the parent alone.

Columns and labels:
[1] = system: influenza A virus; conditions: mice infected with influenza A virus; Yang et al., Eur. Resp. J. 19, 952-958 (2002); cited from earlier work
[2] = system: human rhinovirus subtype 14 (HRV 14); experiment: plaque-reduction assay, HeLa cells infected with human rhinovirus subtype 14; assay type: cell-based
Description: For the purpose of the study HeLa cells were inocculated with human rhinovirus subtype 14 (HRV 14), isolated from nasopharyngeal secretions. Ambroxol hydrochloride (AX) was chosen as the compound for antiviral testing. The antiviral activity of the test substance was evaluated in the plaque-reduction assay. To test the effect of AX on rhinovirus replication HeLa cells were infected with a multiplicity of infection (MOI) of 0.0002, without (control for 100% infection) or in the presence of AX at concentrations between 0.3 and 10 μg/ml. Infected cell cultures were cultivated for three days. Inhibition of virus plaques was evaluated microscopically and compared with controls.

[3] = system: HeLa cells; assay type: cell-based; conditions: human, 5 days
Description: As a first step an assay on possible toxic effects of AX was performed by incubating HeLa cells with increasing dilutions of the test substance for 5 days.
Cell morphology was checked using a microscope. In addition, an assay for mitochondrial enzyme activity (MTT-assay) was used to evaluate the vitality of cells. No changes in cell morphology and enzyme activity were found at concentrations of 10 μg AX/ml and below.

For `Nc1c(Br)cc(Br)cc1CNC1CCC(O)CC1` (stereo not drawn) [Ambroxol, trans-4-(2-amino-3,5-dibromobenzylamino)-cyclohexanole], the survival rate [1] is listed as “increase the survival rate”.
With `Nc1c(Br)cc(Br)cc1CN[C@H]1CC[C@H](O)CC1` [Ambroxol hydrochloride] the inhibition at 0.3 µg/mL ([2]; Human rhinovirus sp., 72 h, 0.3 μg/ml, HeLa cells, HRV 14, MOI 0.0002, three days, average of 6 individual tests, read-out: relative inhibition) was 9.71%, the inhibition at 0.6 µg/mL ([2]; Human rhinovirus sp., 72 h, 0.6 μg/ml, HeLa cells, HRV 14, MOI 0.0002, three days, average of 6 individual tests, read-out: relative inhibition) was 14.4% and the inhibition at 1.2 µg/mL ([2]; Human rhinovirus sp., 72 h, 1.2 μg/ml, HeLa cells, HRV 14, MOI 0.0002, three days, average of 6 individual tests, read-out: relative inhibition) was 34.3%. It also gave an inhibition at 2.5 µg/mL ([2]; Human rhinovirus sp., 72 h, 2.5 μg/ml, HeLa cells, HRV 14, MOI 0.0002, three days, average of 6 individual tests, read-out: relative inhibition) of 36.8%, an inhibition at 5 µg/mL ([2]; Human rhinovirus sp., 72 h, 5 μg/ml, HeLa cells, HRV 14, MOI 0.0002, three days, average of 6 individual tests, read-out: relative inhibition) of 63.7% and an inhibition at 10 µg/mL ([2]; Human rhinovirus sp., 72 h, 10 μg/ml, HeLa cells, HRV 14, MOI 0.0002, three days, average of 6 individual tests, read-out: relative inhibition) of 70.7%. The rhinovirus replication ([2]; conclusion from Table 6) was “effectively blocks rhinovirus replication”, the “concentrations at which no changes in cell morphology were found” value [3] was ≤ 10 μg AX/ml and the “concentrations at which no changes in enzyme activity were found” value [3] was ≤ 10 μg AX/ml.
